Protection from cytokine death and AC50 data for 50 molecules are collected here from PubChem BioAssay AID488844 (Broad Institute, 2010).

Experiment [1] is described as follows: beta-cell survival under cytokine stress – INS-1E, ATP luminescence, dry powder, dose response (AID 488844). Particulars: INS-1E cytokine-induced death rescue, ATP luminescence, 48 h.
Experiment [2] relates to INS-1E cytokine-induced death rescue, ATP luminescence, 48 h. The experiment is described as above.

The structures appear in SMILES notation. Where “and” joins values, the source holds several entries; their conditions need not be identical. Identical values can stand only once. Calls of active or inactive are those of the source.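 How the source made its calls: active means compounds raising protection with a fitted AC50 no more than tenfold their highest valid tested dose; inconclusive means flat curve with partial protection, or unreliable curve fit; inactive means the rest.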

With `C[C@@H]1CN([C@@H](C)CO)C(=O)c2cccc(NC(=O)Nc3cccc4ccccc34)c2O[C@H]1CN(C)S(=O)(=O)c1ccccc1`, in experiment [1] (at 26 µM (top of the series)), the protection from cytokine death is 16.5% (inactive). On the same count and under the same terms, then `COc1ccc(S(=O)(=O)N(C)C[C@@H]2Oc3c(NC(=O)c4cccc5ccccc45)cccc3C(=O)N([C@@H](C)CO)C[C@H]2C)cc1`, with 1.13% (inactive); and `COc1ccc(S(=O)(=O)N(C)C[C@@H]2Oc3ccc(NC(=O)Nc4cccc5ccccc45)cc3C(=O)N([C@@H](C)CO)C[C@H]2C)cc1`, with -13.2% (inactive); and `CNC[C@@H]1Oc2c(NC(=O)Nc3cccc4ccccc34)cccc2C(=O)N([C@@H](C)CO)C[C@H]1C`, with -5.76% (inactive). Turning to `COc1ccc(S(=O)(=O)N(C)C[C@@H]2Oc3c(NC(=O)C4CCCCC4)cccc3C(=O)N([C@@H](C)CO)C[C@H]2C)cc1`, the protection from cytokine death in experiment [1] (at 26 µM (top of the series)) is -8.99% (inactive). In the case of `C[C@@H]1CN([C@@H](C)CO)C(=O)c2cccc(NC(=O)Nc3cccc4ccccc34)c2O[C@H]1CN(C)C(=O)NC1CCCCC1`, the protection from cytokine death in experiment [1] (at 26 µM (top of the series)) is -35.9% (inactive). As for `COc1ccc(S(=O)(=O)N(C)C[C@@H]2Oc3c(NC(=O)C4CC4)cccc3C(=O)N([C@@H](C)CO)C[C@H]2C)cc1`, the protection from cytokine death in experiment [1] (at 23.5 µM (top of the series)) was 1.51% (inactive). Regarding `C[C@@H]1CN([C@@H](C)CO)C(=O)c2cccc(NC(=O)Nc3cccc4ccccc34)c2O[C@H]1CN(C)S(=O)(=O)c1ccc2c(n1)N(C)CCO2`, the protection from cytokine death in experiment [1] (at 26 µM (top of the series)) was 22.7% (inactive). Turning to `COc1ccc(S(=O)(=O)N(C)C[C@@H]2Oc3c(NC(=O)Nc4ccc5c(c4)OCO5)cccc3C(=O)N([C@@H](C)CO)C[C@H]2C)cc1`, the protection from cytokine death in experiment [1] (at 26 µM (top of the series)) was 9.8% (inactive). On to `C[C@@H]1CN([C@@H](C)CO)C(=O)c2cccc(NC(=O)Nc3cccc4ccccc34)c2O[C@H]1CN(C)C(=O)Nc1ccc2c(c1)OCO2`, for which the protection from cytokine death in experiment [1] (at 26 µM (top of the series)) was -28.7% (inactive). On the same count and under the same terms, the value for `C[C@@H]1CN([C@@H](C)CO)C(=O)c2cccc(NC(=O)Nc3cccc4ccccc34)c2O[C@H]1CN(C)S(=O)(=O)c1ccc2c(c1)OCCCO2` was 25.8% (inactive). With `C[C@@H]1CN([C@@H](C)CO)C(=O)c2cccc(NC(=O)Nc3cccc4ccccc34)c2O[C@H]1CN(C)C(=O)Nc1ccc(C(F)(F)F)cc1`, in experiment [1] (at 23.5 µM (top of the series)), the protection from cytokine death was -33.2% (inactive). `N#Cc1ccc2cc(Br)c(C(F)(F)P(=O)(O)O)cc2c1`: the protection from cytokine death in experiment [1] (at 26 µM (top of the series)) is -34.9% (inactive). Turning to `C[C@@H]1CN([C@@H](C)CO)C(=O)c2cccc(NC(=O)Nc3cccc4ccccc34)c2O[C@H]1CN(C)S(=O)(=O)c1cccs1`, the protection from cytokine death in experiment [1] (at 26 µM (top of the series)) is -2.28% (inactive). Regarding `COc1ccc(S(=O)(=O)N(C)C[C@@H]2Oc3c(NS(=O)(=O)c4ccc(F)cc4)cccc3C(=O)N([C@@H](C)CO)C[C@H]2C)cc1`, the protection from cytokine death in experiment [1] (at 26 µM (top of the series)) is 8.48% (inactive). The same measure, in the same setting: then `COc1ccc(S(=O)(=O)N(C)C[C@@H]2Oc3c(NC(=O)Nc4c(C)noc4C)cccc3C(=O)N([C@@H](C)CO)C[C@H]2C)cc1`, with -2.07% (inactive). By AC50 is commonly meant the concentration at which the activity in the assay is half-maximal. In the case of `Cc1ccc(S(=O)(=O)N(C)C[C@@H]2Oc3c(NC(=O)Nc4cccc5ccccc45)cccc3C(=O)N([C@H](C)CO)C[C@H]2C)cc1`, the AC50 in experiment [2] is > 23.5 µM (inactive). As for `C[C@@H]1CN([C@@H](C)CO)C(=O)c2cccc(NC(=O)Nc3cccc4ccccc34)c2O[C@H]1CN(C)S(=O)(=O)c1ccccc1F`, in experiment [1] (at 26 µM (top of the series)), the protection from cytokine death was -7.82% (inactive). On the same count and under the same terms, the value for `COc1ccccc1S(=O)(=O)N(C)C[C@@H]1Oc2c(NC(=O)Nc3cccc4ccccc34)cccc2C(=O)N([C@@H](C)CO)C[C@H]1C` was -1.88% (inactive); that for `COc1ccc(S(=O)(=O)N(C)C[C@@H]2Oc3c(NC(=O)NC4CCCCC4)cccc3C(=O)N([C@@H](C)CO)C[C@H]2C)cc1` was 7.69% (inactive). On the same count and under the same terms, then `COc1ccc(S(=O)(=O)N(C)C[C@@H]2Oc3c(NC(=O)c4nc5ccccc5s4)cccc3C(=O)N([C@@H](C)CO)C[C@H]2C)cc1`, with -19.4% (inactive). Same read-out and setting: then `COc1ccc(S(=O)(=O)N(C)C[C@@H]2Oc3c(NC(=O)NC(C)C)cccc3C(=O)N([C@@H](C)CO)C[C@H]2C)cc1`, with -1.33% (inactive); and `COc1ccc(S(=O)(=O)N(C)C[C@@H]2Oc3c(NC(=O)c4ccc(-c5nccs5)cc4)cccc3C(=O)N([C@@H](C)CO)C[C@H]2C)cc1`, with 12.6% (inactive); and `C[C@@H]1CN([C@@H](C)CO)C(=O)c2cccc(NC(=O)Nc3cccc4ccccc34)c2O[C@H]1CN(C)S(=O)(=O)c1ccc2c(c1)oc(=O)n2C`, with 4.91% (inactive). As for `COc1ccc(S(=O)(=O)N(C)C[C@@H]2Oc3c(NC(=O)c4ccncc4)cccc3C(=O)N([C@@H](C)CO)C[C@H]2C)cc1`, in experiment [1] (at 26 µM (top of the series)), the protection from cytokine death was 0.628% (inactive).

Consider `COc1ccc(S(=O)(=O)N(C)C[C@@H]2Oc3c(NC(=O)c4cnccn4)cccc3C(=O)N([C@@H](C)CO)C[C@H]2C)cc1`, for which the protection from cytokine death in experiment [1] (at 26 µM (top of the series)) is 6.69% (inactive). `C[C@@H]1CN([C@@H](C)CO)C(=O)c2cccc(NC(=O)Nc3cccc4ccccc34)c2O[C@H]1CN(C)S(=O)(=O)c1cn(C)cn1`: the protection from cytokine death in experiment [1] (at 26 µM (top of the series)) is -7.7% (inactive). On the same count and under the same terms, then `COc1ccc(S(=O)(=O)Nc2cccc3c2O[C@@H](CN(C)S(=O)(=O)c2ccc(OC)cc2)[C@H](C)CN([C@@H](C)CO)C3=O)cc1`, with -0.665% (inactive); and `C[C@@H]1CN([C@@H](C)CO)C(=O)c2cccc(NC(=O)Nc3cccc4ccccc34)c2O[C@H]1CN(C)S(C)(=O)=O`, with -4.98% (inactive); and `COc1ccc(S(=O)(=O)N(C)C[C@@H]2Oc3c(NS(=O)(=O)c4cn(C)cn4)cccc3C(=O)N([C@@H](C)CO)C[C@H]2C)cc1`, with -12.2% (inactive).

In the case of `COc1ccc(S(=O)(=O)N(C)C[C@@H]2Oc3c(NC(=O)Nc4ccccc4)cccc3C(=O)N([C@@H](C)CO)C[C@H]2C)cc1`, in experiment [2], the AC50 was > 26 µM (inactive).

For the molecule `C[C@@H]1CN([C@@H](C)CO)C(=O)c2cccc(NC(=O)Nc3cccc4ccccc34)c2O[C@H]1CN(C)S(=O)(=O)c1cccc(F)c1`, the protection from cytokine death in experiment [1] (at 26 µM (top of the series)) is -13.6% (inactive).

Consider `C[C@@H]1CN([C@@H](C)CO)C(=O)c2cccc(NC(=O)Nc3cccc4ccccc34)c2O[C@H]1CN(C)CC1CC1`, for which the protection from cytokine death in experiment [1] (at 26 µM (top of the series)) is -29.1% (inactive). Regarding `COc1ccc(S(=O)(=O)N(C)C[C@@H]2Oc3c(cccc3N(C)C)C(=O)N([C@@H](C)CO)C[C@H]2C)cc1`, in experiment [1] (at 23.5 µM (top of the series)), the protection from cytokine death was -5.24% (inactive).

Turning to `C[C@@H]1CN([C@@H](C)CO)C(=O)c2cccc(NC(=O)Nc3cccc4ccccc34)c2O[C@H]1CN(C)S(=O)(=O)c1ccc2c(c1)OCCO2`, the AC50 in experiment [2] is 1.62 µM and 4.81 µM.

With `Cc1ccc(S(=O)(=O)N(C)C[C@H]2Oc3c(NC(=O)Nc4cccc5ccccc45)cccc3C(=O)N([C@@H](C)CO)C[C@@H]2C)cc1`, in experiment [1] (at 26 µM (top of the series)), the protection from cytokine death is -9.39% (inactive). For the molecule `C[C@H]1CN([C@@H](C)CO)C(=O)c2cccc(NC(=O)NC3CCCCC3)c2O[C@@H]1CN(C)S(C)(=O)=O`, the protection from cytokine death in experiment [1] (at 26 µM (top of the series)) is -7.31% (inactive). Same read-out and setting: the value for `C[C@@H]1CN([C@@H](C)CO)C(=O)c2cccc(NC(=O)Nc3cccc4ccccc34)c2O[C@H]1CN(C)S(=O)(=O)c1ccc(OC(F)(F)F)cc1` was -128% (inactive). Same read-out and setting: then `C[C@@H]1CN([C@@H](C)CO)C(=O)c2cccc(NC(=O)Nc3cccc4ccccc34)c2O[C@H]1CN(C)C(=O)Nc1ccc(F)cc1`, with -27.4% (inactive); and `COc1ccc(S(=O)(=O)N(C)C[C@@H]2Oc3c(NC(=O)Nc4cccc5ccccc45)cccc3C(=O)N([C@@H](C)CO)C[C@H]2C)cc1OC`, with 34.5% (inactive).

As to `COc1ccc(NC(=O)N(C)C[C@@H]2Oc3c(NC(=O)Nc4cccc5ccccc45)cccc3C(=O)N([C@@H](C)CO)C[C@H]2C)cc1`, the protection from cytokine death in experiment [1] (at 26 µM (top of the series)) was -28.7% (inactive). Same read-out and setting: then `COc1ccc(S(=O)(=O)N(C)C[C@@H]2Oc3c(NS(C)(=O)=O)cccc3C(=O)N([C@@H](C)CO)C[C@H]2C)cc1`, with -4.24% (inactive). Still for that read-out and setting: the value for `COc1ccc(NC(=O)Nc2cccc3c2O[C@@H](CN(C)S(=O)(=O)c2ccc(OC)cc2)[C@H](C)CN([C@@H](C)CO)C3=O)cc1` was 13.4% (inactive); that for `COc1ccc(S(=O)(=O)N(C)C[C@@H]2Oc3c(NC(=O)Nc4cccc5ccccc45)cccc3C(=O)N([C@H](C)CO)C[C@@H]2C)cc1` was 13.8% (inactive); that for `Cc1noc(C)c1NC(=O)N(C)C[C@@H]1Oc2c(NC(=O)Nc3cccc4ccccc34)cccc2C(=O)N([C@@H](C)CO)C[C@H]1C` was -14.9% (inactive).

As to `COc1ccc(S(=O)(=O)N(C)C[C@@H]2Oc3c(NC(=O)Nc4ccc(C(F)(F)F)cc4)cccc3C(=O)N([C@@H](C)CO)C[C@H]2C)cc1`, in experiment [1] (at 26 µM (top of the series)), the protection from cytokine death is 7.51% (inactive).

As for `C[C@@H]1CN([C@@H](C)CO)C(=O)c2cccc(NS(=O)(=O)c3ccccc3)c2O[C@H]1CN(C)Cc1ccc(C(F)(F)F)cc1`, the protection from cytokine death in experiment [1] (at 26 µM (top of the series)) is -9.86% (inactive). Regarding `C[C@@H]1CN([C@@H](C)CO)C(=O)c2cccc(NC(=O)Nc3cccc4ccccc34)c2O[C@H]1CN(C)C(=O)Nc1ccccc1`, in experiment [1] (at 23.5 µM (top of the series)), the protection from cytokine death is -1.63% (inactive). On the same count and under the same terms, the value for `COc1ccc(S(=O)(=O)N(C)C[C@@H]2Oc3c(NC(=O)C4CCOCC4)cccc3C(=O)N([C@@H](C)CO)C[C@H]2C)cc1` was 6.47% (inactive).

On to `COc1ccc(S(=O)(=O)N(C)C[C@@H]2Oc3c(NS(=O)(=O)c4ccccc4)cccc3C(=O)N([C@@H](C)CO)C[C@H]2C)cc1`, for which the protection from cytokine death in experiment [1] (at 26 µM (top of the series)) is 4.09% (inactive).
